Experimental data: patent US11382889B2, “NRF2 activators for the prevention and/or treatment of axonal degeneration” (priority 2018, dated 2022)
Structures can show the parent of a compound that is named as a salt.

Tested on: Abcd1− mice spinal cord
Test: Mitochondrial depletion and bioenergetic failure in Abcd1− mice spinal cord
Assay type: in vivo
Settings: 12 months of age, DMF 100 mg/kg/day in chow for 4 months
Protocol: b) NRF2-dependent antioxidative genes (Hmox1, Nqo1 and Gst α 3) expression in WT (n=8), Abcd1^− (n=8) and Abcd1^−+DMF (n=8) mice spinal cord at 12 months of age. Gene expression levels were normalized relative to Rplp0. Quantification is represented as fold change to WT mice. c) Mitochondrial DNA (mtDNA) levels in WT (n=8), Abcd1^− (n=8) and Abcd1^−+DMF (n=8) mice spinal cord at 12 months of age. mtDNA content was measured by quantitative RT-PCR and expressed as the ratio of mtDNA (CytB levels) to nuclear DNA (nDNA, Cebpa levels). Quantification is depicted as fold change to WT mice. d) Sirt1, Pgc-1α, Nrf1 and Tfam expression was measured by quantitative RT-PCR in WT (n=8), Abcd1^− (n=8) and Abcd1^−+DMF (n=8) mice spinal cord at 12 months of age. Gene expression levels were normalized relative to Rplp0. Quantification is depicted as fold change to WT mice. e) ATP levels in WT (n=8), Abcd1^− (n=8) and Abcd1^−+DMF (n=8) mice spinal cord at 12 months of age. Quantification is represented as fold change to WT mice. Data are shown as mean±SD (*p<0.05, **p<0.01, ***p<0.001 after one-way ANOVA test followed by Tukey's post-hoc test; #p<0.05 after one-way ANOVA test followed by Dunnett's post-hoc test; p<0.05, p<0.01 after non-parametric Kruskal-Wallis' test).
Cages contained 3 to 5 animals.
We used two X-ALD mouse models in this study. We characterized the biochemical signs of adult X-ALD in Abcd1^− mice at 12 months of age. These mice show biochemical signs of pathology, including oxidative stress and energetic homeostasis impairment, before the first clinical signs of AMN-like pathology (axonopathy and locomotor impairment) appear at 20 months.
For biochemical analysis, we killed the mice and stored the tissues at −80° C. after snap-freezing them in liquid nitrogen. For histological analysis, spinal cord was harvested from 18-month-old mice after perfusing them with 4% paraformaldehyde (PFA; Sigma-Aldrich, Ref. 441244) in 0.1 M phosphate buffer pH 7.4. […]

COC(=O)/C=C/C(=O)OC [DMF, dimethyl fumarate]
normalized: mitochondrial DNA (mtDNA) levels (Abcd1− mouse spinal cord) | mitochondrial biogenesis genes mRNA expression (Sirt1, Pgc-1α, Nrf1, Tfam) (Abcd1− mouse spinal cord) | ATP levels (X-ALD (Abcd1−) mouse spinal cord)
